From ChEMBL document CHEMBL6078631, “Covalent inhibitors meet epigenetics: New opportunities” (Eur J Med Chem, 2024) come the findings set out here.

For this test, the target named is RNA cytosine C(5)-methyltransferase NSUN2 (Homo sapiens) (UniProt Q08J23). The experiment in a line: Binding affinity to human NSUN2 assessed as ratio of kinact/Ki.
RNA cytosine C(5)-methyltransferase NSUN2 (Homo sapiens), sequence (Q08J23 whole entry): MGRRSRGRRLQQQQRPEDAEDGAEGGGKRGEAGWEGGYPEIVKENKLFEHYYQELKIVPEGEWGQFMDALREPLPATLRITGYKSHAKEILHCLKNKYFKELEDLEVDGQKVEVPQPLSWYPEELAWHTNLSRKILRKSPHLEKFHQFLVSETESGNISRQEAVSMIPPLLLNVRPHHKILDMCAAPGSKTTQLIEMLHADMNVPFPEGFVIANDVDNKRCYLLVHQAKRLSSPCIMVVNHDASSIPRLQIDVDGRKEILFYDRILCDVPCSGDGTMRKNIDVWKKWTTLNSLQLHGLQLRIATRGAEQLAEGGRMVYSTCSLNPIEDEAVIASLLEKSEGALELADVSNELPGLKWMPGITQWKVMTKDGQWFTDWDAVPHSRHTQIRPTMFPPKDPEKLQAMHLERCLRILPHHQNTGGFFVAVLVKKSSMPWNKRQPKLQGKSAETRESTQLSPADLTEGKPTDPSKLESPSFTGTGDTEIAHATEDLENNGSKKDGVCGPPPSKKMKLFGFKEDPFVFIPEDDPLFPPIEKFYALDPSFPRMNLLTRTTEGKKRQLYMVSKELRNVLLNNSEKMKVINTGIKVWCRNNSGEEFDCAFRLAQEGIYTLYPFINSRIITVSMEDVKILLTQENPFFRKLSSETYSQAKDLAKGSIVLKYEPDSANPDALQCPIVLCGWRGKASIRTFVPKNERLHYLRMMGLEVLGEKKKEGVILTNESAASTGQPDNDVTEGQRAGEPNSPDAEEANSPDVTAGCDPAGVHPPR

As to `C=CC(=O)N1C[C@H](c2ccc(Br)cc2)[C@@H]1C(=O)Nc1cccc2cccnc12`, the kinact/Ki stood at 67 M⁻¹ s⁻¹.
